Molecules are shown by their SMILES.

The first experiment deals with c-Myc template DNA (c-myc quadruplex). Put plainly: Quadruplex binding / stop assay (Taq polymerase arrest, capillary electrophoresis). As to conditions: read-out: S DATA; Table 1D, stop assay data.
Text: A high throughput polymerase arrest assay has been developed. The assay comprises contacting a template nucleic acid, often DNA, with a primer, which also is often DNA; contacting the primer/template complex with a compound described herein (also referred to as a “test compound”); contacting the primer/template complex with a polymerase; and separating reaction products. The assay often includes the step of denaturing the primer/template complex mixture and then renaturing the complex, which often is carried out before a test molecule is added to the system. Multiple assays often are carried out using varying concentrations of a test compound, such that an IC50 value can be obtained, for example. The reaction products often include extended primers of different lengths.
Thus, the reaction mixture often includes at least two reaction products when a test compound interacts with a quadruplex structure in the template, one having a completely extended primer and one having an incompletely extended primer, and these two reaction products are separated. The products may be separated using any convenient separation method, such as mass spectrometry and in one embodiment, capillary electrophoresis.
In an embodiment, a primer oligonucleotide covalently linked to a fluorescent label is contacted with template DNA. The resulting complex is contacted with a test molecule and then contacted with a polymerase capable of extending the primer. The reaction products then are separated and detected by capillary electrophoresis. A longer primer sequence was used for practicing this embodiment as compared to embodiments where the primer includes no covalently-linked fluorophore or where capillary electrophoresis is not utilized for separation. Deoxynucleotides are added at any stage of the assay before the separation, often when the primer is contacted with the template DNA. The template DNA/primer complex often is denatured (e.g., by increasing the temperature of the system) and then renatured (e.g., by cooling the system) before a test compound is added).
The mixture was denatured at 95° C. for 5 minutes and, after cooling down to room temperature, was incubated at 37° C. for 15 minutes.
After cooling down to room temperature, 1 mM KCl and the test compound (various concentrations) were added and the mixture incubated for 15 minutes at room temperature. The primer extension was performed by adding 10 mM KCl and Taq DNA Polymerase (2.5 U/reaction, Promega) and incubating at 70° C. for 30 minutes. The reaction was stopped by adding 1 μl of the reaction mixture to 10 μl Hi-Di Formamide mixed and 0.25 μl LIZ120 size standard. Hi-Di Formamide and LIZ120 size standard were purchased from Applied Biosystems.
The partially extended quadruplex arrest product was between 61 or 62 bases long and the full-length extended product was 99 bases long. The products were separated and analyzed using capillary electrophoresis. Capillary electrophoresis was performed using an ABI PRISM 3100-Avant Genetic Analyzer.
Stop Assays. […] A fluorescently labeled primer DNA is then annealed to the 3′ end of the template DNA. A DNA polymerase such as Taq polymerase is then introduced to synthesize a complementary strand of DNA by extending from the fluorescently labeled primer. When the progress of the Taq polymerase is unhindered, it synthesizes a full-length copy of the template.
These products are visualized by capillary electrophoresis.
As to `CN1CCN(c2c(F)cc3c(=O)c(C(=O)NCCN4CCCC4)cn4c3c2Oc2cc(Cl)ccc2-4)CC1` [compound 1817], the IC50 was 10 µM.
`CC(C)N1CCN(c2c(F)cc3c(=O)c(C(=O)NCCN4CCCC4)cn4c3c2Oc2ccccc2-4)CC1` [compound 1566]: the IC50 was greater than 15 µM.
Regarding `CC(CNc1c(F)cc2c(=O)c(C(=O)NCCC3CCCN3C)cn3c2c1Oc1cc2ccccc2cc1-3)Oc1ccccn1` (stereo not drawn) [compound 1750], the IC50 turned out to be 9.7 µM.
With `O=C(NCCN1CCCC1)c1cn2c3c(c(N4CC5CCCNC5C4)c(F)cc3c1=O)Oc1ccccc1-2` (stereo not drawn) [compound 1728], the IC50 is greater than 15 µM.
As to `O=C(NCCN1CCOCC1)c1cn2c3c(c(NCCN4CCCC4)ccc3c1=O)Oc1cc3ccccc3cc1-2` [compound 1521], the IC50 was 1.75 µM.
As to `CN1CCN(C(=O)c2cn3c4c(c(NCCN5CCCC5)c(F)cc4c2=O)Oc2ccccc2-3)CC1` [compound 1602], the IC50 is greater than 15 µM.
Same read-out and setting: for `CC(C)(C)OC(=O)NC1CCN(c2c(F)cc3c(=O)c(C(=O)NCCCCN)cn4c3c2Oc2ccccc2-4)C1` (stereo not drawn) [compound 1589] the value was greater than 15 µM; for `CC1CCCCN1CCCNc1c(F)cc2c(=O)c(C(=O)NCCC3CCCN3C)cn3c2c1Oc1cc2ccccc2cc1-3` (stereo not drawn) [compound 1489], 0.95 µM; for `CN1CCCC1CCNc1ccc2c(=O)c(C(=O)NC3CC(C)(C)NC(C)(C)C3)cn3c2c1Oc1cc2ccccc2cc1-3` (stereo not drawn) [compound 1525], 1.75 µM.
The same measure, in the same setting: for `CN1CCCC1CCNC(=O)c1cn2c3c(c(NCCCn4ccnc4)c(F)cc3c1=O)Oc1cc3ccccc3cc1-2` (stereo not drawn) [compound 1670] the value was 1 µM; for `CC(C)(C)OC(=O)NC1CCN(c2c(F)cc3c(=O)c(C(=O)NCCCN4CCOCC4)cn4c3c2Oc2ccccc2-4)C1` (stereo not drawn) [compound 1583], greater than 15 µM; for `CN1CCN(CCCNc2c(F)cc3c(=O)c(C(=O)NCCCCN)cn4c3c2Oc2ccccc2-4)CC1` [compound 1579], greater than 15 µM.
As to `CN1CCCC1CCNC(=O)c1cn2c3c(c(NCCN4CCCC4)ccc3c1=O)Oc1cc3ccccc3cc1-2` (stereo not drawn) [compound 1517], the IC50 worked out at 0.75 µM.
For the compound `O=C(NCCN1CCCC1)c1cn2c3c(c(N4CCN(Cc5ccco5)CC4)c(F)cc3c1=O)Oc1cc(Cl)ccc1-2` [compound 1829], the IC50 stood at 10 µM.
On the same count and under the same terms, for `CN1CCCC1CCNC(=O)c1cn2c3c(c(NCCCCN4CCCC4)c(F)cc3c1=O)Oc1cc3ccccc3cc1-2` (stereo not drawn) [compound 1504] the value was 0.75 µM.
On the same count and under the same terms, with `CN(C)CC(C)(C)CNC(=O)c1cn2c3c(c(NCCN4CCOCC4)c(F)cc3c1=O)Oc1ccccc1-2` [compound 1612] the figure was greater than 15 µM; with `CC1CCN(CCCNc2c(F)cc3c(=O)c(C(=O)NCCC4CCCN4C)cn4c3c2Oc2cc3ccccc3cc2-4)CC1` (stereo not drawn) [compound 1501], 0.75 µM.
Regarding `CN1CCCC1CCNc1ccc2c(=O)c(C(=O)NCCN3CCOCC3)cn3c2c1Oc1cc2ccccc2cc1-3` (stereo not drawn) [compound 1527], the IC50 amounted to 1.75 µM.
For the compound `CN1CCCC1CCNC(=O)c1cn2c3c(c(N(C)C4CCNC4)c(F)cc3c1=O)Oc1cc3ccccc3cc1-2` (stereo not drawn) [compound 1502], the IC50 was 0.75 µM.
The same measure, in the same setting: for `O=C(NCCN1CCCC1)c1cn2c3c(c(SCCc4cnccn4)c(F)cc3c1=O)Oc1cccnc1-2` [compound 1786] the value was greater than 15 µM; for `CN(C)CCCCNC(=O)c1cn2c3c(c(N4CCC(NC(=O)OC(C)(C)C)C4)ccc3c1=O)Oc1cc3ccccc3cc1-2` (stereo not drawn) [compound 1538], 1 µM; for `CC1(C)CC(NC(=O)c2cn3c4c(c(NCCCN5CCOCC5)ccc4c2=O)Oc2cc4ccccc4cc2-3)CC(C)(C)N1` [compound 1531], greater than 15 µM.
For `NC1CCN(c2c(F)cc3c(=O)c(C(=O)NCC4CCCO4)cn4c3c2Oc2cc3ccccc3cc2-4)C1` (stereo not drawn) [compound 1693], the IC50 is greater than 15 µM.
The same measure, in the same setting: with `CN1CCN(CCCNC(=O)c2cn3c4c(c(N5CC6CCCNC6C5)c(F)cc4c2=O)Oc2cc4ccccc4cc2-3)CC1` (stereo not drawn) [compound 1641] the figure was 0.75 µM.
On to `CN1CCN(CCCNc2ccc3c(=O)c(C(=O)NCCN4CCCC4)cn4c3c2Oc2cc3ccccc3cc2-4)CC1` [compound 1552], for which the IC50 turned out to be 0.75 µM.
Same read-out and setting: with `CN1CCCC1CCNC(=O)c1cn2c3c(c(NCC4CCNC4)c(F)cc3c1=O)Oc1cc3ccccc3cc1-2` (stereo not drawn) [compound 1617] the figure was 0.375 µM; with `CC(C)N1CCN(c2c(F)cc3c(=O)c(C(=O)NCCCN4CCN(C)CC4)cn4c3c2Oc2ccccc2-4)CC1` [compound 1563], greater than 15 µM.

The experiment is the same for the next values; noted with them: read-out: Stop Data c-Myc μM; concentration at which 50% of the DNA was arrested (arrested:full-length 1:1).
Regarding `CN1CCCC1CCNc1c(F)cc2c(=O)c(-c3nc4ccccc4s3)cn3c2c1Oc1cc2ccccc2cc1-3` (stereo not drawn) [compound 114], the IC50 came to 1.75 µM.
Same read-out and setting: with `CN1CCCC1CCNc1c(F)cc2c(=O)c(C(=O)NCCCN3CCOCC3)cn3c2c1Oc1cc2ccccc2cc1-3` (stereo not drawn) [compound 122] the figure was 1.75 µM.
In the case of `CN1CCCC1CCNC(=O)c1cn2c3c(c(NC(=O)CCN4CCCC4)c(F)cc3c1=O)Oc1cc3ccccc3cc1-2` (stereo not drawn) [compound 89], the IC50 was 2.5 µM.
On the same count and under the same terms, with `CN1CCN(CCCNc2c(F)cc3c(=O)c(C(=O)NCCN4CCCC4)cn4c3c2Oc2cc3c(cc2-4)oc2ccccc23)CC1` [compound 152] the figure was 1.75 µM; with `N[C@H]1CCN(C(=O)c2cn3c4cc5c(cc4oc4c(NCCCN6CCOCC6)c(F)cc(c2=O)c43)c(=O)c2ccccc25)C1` [compound 216], 1.75 µM; with `O=C(NCCN1CCCC1)c1cn2c3cc4c(cc3oc3c(NCCCN5CCOCC5)c(F)cc(c1=O)c32)c(=O)c1ccccc14` [compound 418], 0.75 µM.
Still for that read-out and setting: with `CN1CCN(C(=O)c2cn3c4c(c(N5CC[C@@H](NC(=O)CNCCC6CCCN6C)C5)c(F)cc4c2=O)Oc2cc4c(cc2-3)oc2ccccc24)CC1` (stereo partly drawn) [compound 411] the figure was 0.75 µM; with `CN(C)CCCCNC(=O)c1cn2c3c(c(NCCCN4CCOCC4)c(F)cc3c1=O)Oc1cc3ccccc3cc1-2` [compound 52], 2.5 µM.
On the same count and under the same terms, for `Nc1c(F)c(N2CCC(N)C2)c2c3c1c(=O)c(C(=O)NCCCN1CCOCC1)cn3-c1cc3ccccc3cc1O2` (stereo not drawn) [compound 235] the value was 1.75 µM; for `CC1CCN(CCCNc2c(F)cc3c(=O)c(C(=O)NCCC4CCCN4C)cn4c3c2Oc2cc3ccccc3cc2-4)CC1` (stereo not drawn) [compound 438], 0.75 µM; for `N=C(N)NCCCCNC(=O)c1cn2c3c(c(NCCCN4CCOCC4)c(F)cc3c1=O)Oc1cc3ccccc3cc1-2` [compound 330], 1 µM.
Regarding `CN1CCCC1CCNC(=O)c1cn2c3c(c(NCCC4CCCN4C)c(F)cc3c1=O)Oc1c-2ccc2ccccc12` (stereo not drawn) [compound 525], the IC50 amounted to 0.375 µM.
Still for that read-out and setting: with `CN1CCCC1CCNC(=O)c1cn2c3c(c(NCCCn4ccnc4)c(F)cc3c1=O)Oc1cc3ccccc3cc1-2` (stereo not drawn) [compound 335] the figure was 1 µM.
Same read-out and setting: for `N=C(N)NCCCNC(=O)c1cn2c3c(c(NCCN4CCCC4)c(F)cc3c1=O)Oc1cc3ccccc3cc1-2` [compound 333] the value was 1 µM.
On the same count and under the same terms, for `CN1CCCC1CCNC(=O)c1cn2c3c(c(NCCCCCO)c(F)cc3c1=O)Oc1cc3ccccc3cc1-2` (stereo not drawn) [compound 1469] the value was 1.75 µM.
Turning to `CN(C)CCCCNC(=O)c1cn2c3c(c(NCCN4CCCC4)c(F)cc3c1=O)Oc1cc3ccccc3cc1-2` [compound 317], the IC50 was found to be 1 µM.
Consider `CN1CCN(CCCNC(=O)c2cn3c4c(c(NCCCN5CCOCC5)c(F)cc4c2=O)Oc2c-3ccc3ccccc23)CC1` [compound 127], for which the IC50 amounted to 1.75 µM.
Same read-out and setting: with `CN1CCN(c2c(F)cc3c(=O)c(C(=O)NCCC4CCCN4C)cn4c5cc6c(=O)c7ccccc7c(=O)c6cc5oc2c34)CC1` (stereo not drawn) [compound 351] the figure was 0.9 µM; with `CN1CCN(CCCNCCC(=O)N[C@@H]2CCN(c3c(F)cc4c(=O)c(C(=O)NCCN5CCCC5)cn5c4c3Oc3cc4c(cc3-5)oc3ccccc34)C2)CC1` [compound 403], 0.75 µM; with `O=C(NCCN1CCOCC1)c1cn2c3c(c(NCCN4CCOCC4)c(F)cc3c1=O)Oc1cc3ccccc3cc1-2` [compound 54], 2.5 µM.
Still for that read-out and setting: with `CN(C)CCCCNC(=O)c1cn2c3c(c(NCCC4CCCN4C)c(F)cc3c1=O)Oc1c-2ccc2ccccc12` (stereo not drawn) [compound 550] the figure was 0.375 µM.
The same measure, in the same setting: for `CN(C)CCCCNC(=O)c1cn2c3c(c(N4CCC(NC(=O)OC(C)(C)C)C4)ccc3c1=O)Oc1cc3ccccc3cc1-2` (stereo not drawn) [compound 452] the value was 0.75 µM; for `CN1CCCC1CCNC(=O)c1cn2c3c(c(NCCC4CCCN4C)ccc3c1=O)Oc1cc3ccccc3cc1-2` (stereo not drawn) [compound 449], 0.75 µM; for `CN1CCN(CCCNC(=O)c2cn3c4c(c(NCCCN5CCOCC5)c(F)cc4c2=O)Oc2cc4ccccc4cc2-3)CC1` [compound 49], 2.5 µM.
With `CC(=O)N[C@@H]1CCN(c2c(F)cc3c(=O)c(C(=O)NCCCN4CCN(C)CC4)cn4c3c2Oc2cc3c(cc2-4)oc2ccccc23)C1` [compound 179], the IC50 came out at 1.75 µM.
Still for that read-out and setting: for `CN1CCN(CCCNC(=O)c2cn3c4c(c(N5CCC(NC(=O)OC(C)(C)C)C5)c(F)c(N)c4c2=O)Oc2cc4ccccc4cc2-3)CC1` (stereo not drawn) [compound 231] the value was 1.75 µM.
Regarding `CN1CCCC1CCNc1c(F)cc2c(=O)c(C(=O)N3CC[C@@H](NC(=O)OC(C)(C)C)C3)cn3c2c1Oc1cc2ccccc2cc1-3` (stereo partly drawn) [compound 68], the IC50 is 2.5 µM.
The same measure, in the same setting: for `CN1CCN(c2c(F)cc3c(=O)c(C(=O)NCCCN4CCOCC4)cn4c5cc6c(=O)c7ccccc7c(=O)c6cc5oc2c34)CC1` [compound 172] the value was 1.75 µM.
`CN1CCCC1CCNC(=O)c1cn2c3c(c(/N=C4\CCCCN4)c(F)cc3c1=O)Oc1cc3ccccc3cc1-2` (stereo not drawn) [compound 253]: the IC50 was 1.75 µM.
With `CN1CCCC1CCNc1c(F)cc2c(=O)c(C(=O)NCCCn3ccnc3)cn3c2c1Oc1cc2c(cc1-3)oc1ccccc12` (stereo not drawn) [compound 159], the IC50 was 1.75 µM.
As for `CN1CCCC1CCNC(=O)c1cn2c3c(c(N4CCC(C(N)=O)CC4)c(F)cc3c1=O)Oc1cc3ccccc3cc1-2` (stereo not drawn) [compound 261], the IC50 stood at 1.75 µM.
For `CN1CCN(CCCNC(=O)c2cn3c4c(c(NCCCN5CCOCC5)c(F)c(N)c4c2=O)Oc2cc4ccccc4cc2-3)CC1` [compound 223], the IC50 stood at 1.75 µM.
Same read-out and setting: for `CN(C)CCCCNc1c(F)cc2c(=O)c(C(=O)NCCCN3CCOCC3)cn3c2c1Oc1c-3ccc2ccccc12` [compound 400] the value was 0.75 µM.

(Values after patent US7507727B2, “Substituted quinobenzoxazine analogs and methods of using thereof” (Cylene Pharmaceuticals, Inc., priority 2003, dated 2009).)
